Laboratory results from US5679663A, “Pharmaceutical compounds” (priority 1996, dated 1997).
Structures can show the parent of a compound that is named as a salt.

Tests used:
[1] = Solubility; settings: for solubility compared with the compound described under (A): relative to Example 5(A)
[2] = Toxicity (LD100, LD50, MTD); format: in vivo; settings: for LD50 / MTD: in vivo; for LD50 / MTD / LD100: species and route not given; for MTD: read-out: MTD (maximum tolerance dose)
[3] = system: apomorphine-induced hypothermia; experiment: Apomorphine-induced hypothermia in mice; format: in vivo; settings: 90 mg/kg, 40 min before apomorphine 25 mg/kg s.c.
Protocol: The effect of CAPAH on apomorphine-induced hypothermia and stereotypy was evaluated. The hypothermia was induced by subcutaneously injecting mice with 25 mg/kg of apomorphine. The change in skin temperature was recorded by a TPEM-1 thermometer immediately before injecting with apomorphine and also 60 and 120 minutes after the administration.
(§1) Stereotypy in rats was induced by subcutaneous administration of 20 mg/kg of apomorphine. The total duration of the stereotypy episode was evaluated and also the intensity of individual components thereof (licking, gnawing, sniffing). CAPAH was administered 40 minutes before the apomorphine as a 90 mg/kg dose to the mice and 100 mg/kg dose to the rats.

[4] = system: apomorphine-induced stereotypy; experiment: Apomorphine-induced stereotypy in rats; format: in vivo; settings: 100 mg/kg, 40 min before apomorphine 20 mg/kg s.c.
Protocol: as §1

[5] = system: L-dopa induced hypothermia and motor activity; experiment: Interaction with L-dopa (hypothermia, depression and reduction of motor activity); format: in vivo; settings: 100 mg/kg; L-dopa 150 mg/kg, mice
Protocol: L-3,4-dihydroxyphenylalanine (L-dopa) was administered in a 150 mg/kg dose, which induces hypothermia, depression and reduction of motor activity.

[6] = system: haloperidol-induced catalepsy; experiment: Impact on catalepsy caused by haloperidol; format: in vivo; settings: 100 mg/kg
Protocol: Catalepsy was evaluated from the animal's ability to maintain an awkward posture (hind legs placed on a 30 mm high pedestal and forelegs on the bench) for 90 seconds at intervals of 10, 60 and 120 minutes after the latest administration of haloperidol.

[7] = system: hypoxia induced amnesia; experiment: Hypoxia induced amnesia, passive avoidance test; format: in vivo, Mongolian Gerbil
Text: (§2) The protective effect of the compound CAPAH was studied in relation to both scopolamine and hypoxia induced amnesia in gerbils by the passive avoidance test.
(§3) Gerbils underwent a training schedule of "passive avoidance", i.e. they learned not to enter a dark compartment into which an electric shock was delivered.
The gerbils were trained as described above. To produce a hypoxic environment a gas-mixture (4% oxygen, 96% nitrogen) was blown through a plastic box (12 l/min). Immediately after the training period the gerbil was put into this hypoxic environment and removed when gasping was shown (maximum stay in the hypoxic box is 40 seconds).
(§4) The gerbils were trained as described above in a step-down type passive avoidance apparatus (Model E13-08, Coulbourn Instruments, Lehigh Valley, USA), divided into a safe part and a grill part. […] Training of the passive avoidance was carried out for 5 minutes. The gerbils were placed on the safety platform and received a series of mild electric shocks, […] (shock sensitivity determined for each batch of gerbils) for 3 seconds every 6 seconds when it stepped off the grill. Gerbils were returned to the apparatus for testing 24 hours later and their step-down latencies to the grill floor (recall latency) were recorded (maximum 60 seconds).
(§5) In both these series of experiments Piracetam was used as a control.

[8] = system: scopolamine induced amnesia; experiment: Scopolamine induced amnesia, passive avoidance test; format: in vivo, Mongolian Gerbil
Protocol: as §2, §3
Scopolamine Induced Amnesia
Gerbils received an intra-peritoneal injection of scopolamine (0.5 mg/kg) 30 minutes before the training procedure. The ability of CAPAH, given prior to scopolamine, to prevent the induced amnesia was determined.
as §4, §5

[9] = system: mice immobilization (behavioural despair); experiment: Behavioural despair model (duration of immobilization, swimming); format: in vivo, mice (tetrahybrids SVA); settings: 90 mg/kg; for Duration of mice immobilization, behavioural despair test: 6 minutes of observation
Protocol: In this test, mice (tetrahybrids SVA) were obliged to swim in a limited space, presented as a cylindrical vessel which was 15 cm high containing a water level of 6 cm maintained at a temperature of 21° C. A "slowing down" of swimming activity was observed. This "slowing down" is regarded to reflect the state of lowering of spirits and increasing despair of the mice. The slowing down is diminished by anti-depressants.
CAPAH was investigated in acute and chronic application (for 10 days). The mean duration of animal immobility for 6 minutes of observation was estimated in seconds.
CAPAH was injected in a dose of 90 mg/kg 40 minutes before the experiment.

[10] = system: learned helplessness (avoidance reaction); experiment: Learned helplessness model (avoidance reaction, shuttle chamber); format: in vivo, mice; settings: for Average latence of avoidance period / Percent of nonavoidance from total test number / Average latence of avoidable period: CAPAH 90 mg/kg, melipramine 7 mg/kg, i.p.
Protocol: The phenomenon of learned helplessness is that exposure to uncontrollable stress produces deficits in subsequent learning tasks. The preliminary non-avoidable aversive phase of the test was carried out in dark chambers (30 cm×15 cm×15 cm) with electrodes in the floor. Mice were placed into the chambers individually where they received a number of stimuli (150 mkA, 60 Hz) for 6 seconds with 30 second intervals. Exposure lasted for 40 minutes. 24 hours later the animals were tested in a "shuttle" chamber which consisted of two compartments with the electrode floor connected by the opening situated 1 cm above the base. The entrance to the neighbouring compartment was blocked by a door operated automatically. Stimulation (150 mkA) was directed in turn to each compartment with 30 second intervals and 4 seconds lag. After 10 sessions the door was closed and electric current stopped. The average summary latent time of avoidance was estimated as well as the total number of non-fulfilled reactions.
Experiments were carried out in 40 male […] weighing 18-20 g. Melipramine was used as a standard preparation. Preparations were injected intraperitoneally in doses: CAPAH--90 mg/kg, melipramine--7 mg/kg. Control animals received an equal quantity of distilled water. In the first control group (control 1) mice were not exposed to non-avoidable aversive stimulations; in the second control group (control 2) the animals were exposed to the preliminary non-avoidable aversive influence but without drug preparations.

[11] = system: hypoxia induced by direct lack of oxygen; experiment: Lifetime following hypoxia induced by direct lack of oxygen; format: in vivo, white mice
Protocol: (§6) The potential of CAPAH to provide neuroprotection following a stroke was illustrated by its anti-hypoxic properties in mice using both hypoxia induced directly by lack of oxygen in the atmosphere and hypoxia induced by sodium nitrite injection.
White mice in groups of six with a standard weight of 18 grams were placed in hermetically sealed jars and the lifetime of the animals was recorded.

[12] = system: hypoxia induced by sodium nitrite; experiment: Lifetime following hypoxia induced by sodium nitrite; format: in vivo, white mice; settings: 90 mg/kg i.p.
Protocol: as §6
White mice in groups of eight with a weight in the range of 18 to 21 grams were injected subcutaneously with 300 mg/kg of aqueous sodium nitrite and their subsequent lifetime was recorded. A control group of mice received no additional pre-treatment but a second group received a prior intraperitoneal injection of 90 mg/kg CAPAH.

[13] = Pharmacological investigation (central nervous system); settings: in vivo
[14] = U.S. Pat. Nos. 4,162,264 and 4,162,311; cited from earlier work

Compound: CN(C)c1ccc(P(=O)(CC(=O)NN)OCCCl)cc1 (stereo not drawn) [CAPAH hydrochloride]
- water solubility ([1]; water): high water solubility

Compound: CN(C)c1ccc(P(=O)(CC(=O)NN)OCCCl)cc1 (stereo not drawn) [CAPAH, (2-chloroethoxy)(p-N,N-dimethylaminophenyl)phosphinylacetohydrazide]
- interval between the maximum tolerance dose (MTD) and the LD100 ([2]; comparison with DPAH): significantly greater interval
- toxicity compared with DPAH ([2]; comparison with DPAH): less toxic
- LD50 [2]: 960 ± 35 mg/kg
- MTD [2]: 700 mg/kg
- LD100 [2]: 1200 mg/kg
- effect on apomorphine-induced hypothermia [3]: no effect
- effect on apomorphine-induced stereotypy [4]: no effect
- activity on L-dopa induced effects [5]: no activity
- dopamine-mimetic activity [6]: reveals dopamine-mimetic activity
- effect on haloperidol induced catalepsy ([6]; haloperidol 5 mg/kg hypodermic injection): reduces haloperidol induced catalepsy
- Latency (sec ± SEM), hypoxia induced amnesia ([7]; 1 mg/kg): 135 ± 21 s
- Latency (sec ± SEM), hypoxia induced amnesia ([7]; 10 mg/kg): 111 ± 25 s
- Latency (sec ± SEM), hypoxia induced amnesia ([7]; 30 mg/kg): 71 ± 28 s
- Latency (sec ± SEM), hypoxia induced amnesia ([7]; 100 mg/kg): 119 ± 23 s
- toxicity of the dose ([7]; 300 mg/kg (1/3 DL50)): toxic
- Latency (sec ± SEM), hypoxia induced amnesia ([7]; 300 mg/kg): 20 ± 8 s
- activity in hypoxia induced amnesia test ([7]; doses 1, 10, 100 mg/kg): active
- activity in hypoxia induced amnesia test ([7]; doses 30, 300 mg/kg): Activity was absent
- Latency (sec ± SEM), scopolamine induced amnesia ([8]; 1 mg/kg): 35 ± 17 s
- Latency (sec ± SEM), scopolamine induced amnesia ([8]; 10 mg/kg): 52 ± 21 s
- Latency (sec ± SEM), scopolamine induced amnesia ([8]; 30 mg/kg): 36 ± 17 s
- Latency (sec ± SEM), scopolamine induced amnesia ([8]; 100 mg/kg): 49 ± 16 s
- Latency (sec ± SEM), scopolamine induced amnesia ([8]; 300 mg/kg): 76 ± 30 s
- memory enhancement in scopolamine-induced amnesia ([8]; lower doses (below 300 mg/kg)): a trend towards memory enhancement
- reversal of scopolamine-induced amnesia ([8]; only at 300 mg/kg): Statistically significant reversal
- duration of "slowing down" (anti-depressant activity) ([9]; repeated application): lessens the duration of "slowing down"
- Duration of mice immobilization, behavioural despair test ([9]; repeated injection (10 days)): 177.5 ± 17.5
- Duration of mice immobilization, behavioural despair test ([9]; single injection, 40 min before): 210 ± 22.5 s
- anti-depressant effects, learned helplessness ([10]; 90 mg/kg, single and chronic treatment): marked anti-depressant effects
- Average latence of avoidance period ([10]; 6-fold injection): 9.0 ± 0.7
- Percent of nonavoidance from total test number ([10]; 6-fold injection): 2%
- Average latence of avoidable period ([10]; 12-fold injection): 7.9 ± 0.7
- Percent of nonavoidance from total test number ([10]; 12-fold injection): 1.3%
- Average latence of avoidable period ([10]; single injection): 12.1 ± 1.5
- Percent of nonavoidance from total test number ([10]; single injection): 19%
- Lifetime (± deviation), hypoxia by direct lack of oxygen ([11]; 30 mg/kg i.p., second experiment): 16.4 ± 1.2 min
- Lifetime (± deviation), hypoxia by direct lack of oxygen ([11]; 45 mg/kg i.p., first experiment): 18.8 ± 1.1 min
- Lifetime (± deviation), hypoxia by direct lack of oxygen ([11]; 90 mg/kg i.p., first experiment): 17.0 ± 0.1 min
- effect on lifetime, hypoxia by direct lack of oxygen ([11]; 90 or 45 mg/kg): extension of lifetime
- effect on lifetime, hypoxia induced by sodium nitrite [12]: extension of lifetime
- Lifetime (± deviation), hypoxia induced by sodium nitrite ([12]; sodium nitrite 300 mg/kg s.c.): 16.9 ± 1.0 min
- effect on the central nervous system [13]: selectively affects the central nervous system

Compound: NNC(=O)CP(=O)(c1ccccc1)c1ccccc1 [DPAH, diphenylphosphinylacetohydrazide, reference compound]
- LD50 [2]: 315 ± 24.8 mg/kg
- MTD [2]: 200 mg/kg
- LD100 [2]: 500 mg/kg
- properties of DPAH [14]: vegetropic, anti-epileptic and anti-serotonin properties

Compound: CC=CC=NNC(=O)CP(=O)(OCCCl)c1ccc(N(C)C)cc1 (stereo not drawn) [Example 5(A), N^β -(but-2-enylidene)-(2-chloroethoxy)-(p-N,N-dimethylaminophenyl)phosphinylacetohydrazide]
- solubility in dimethyl sulphoxide and other aprotic polar solvents ([1]; dimethyl sulphoxide and other aprotic polar solvents): soluble in dimethyl sulphoxide and other aprotic polar solvents
- solubility in most organic solvents and in water ([1]; most organic solvents and water): poorly soluble

Compound: CN(C)CCCN1c2ccccc2CCc2ccccc21 [Melipramine, reference compound]
- Average latence of avoidance period ([10]; 6-fold injection): 11.8 ± 1.5
- Percent of nonavoidance from total test number ([10]; 6-fold injection): 29%
- Average latence of avoidable period ([10]; 12-fold injection): 9.2 ± 1.1
- Percent of nonavoidance from total test number ([10]; 12-fold injection): 11%
- Average latence of avoidable period ([10]; single injection): 13.5 ± 1.8
- Percent of nonavoidance from total test number ([10]; single injection): 43%

Compound: CN(C)c1ccc(P(=O)(CC(=O)NN=CC=Cc2ccccc2)OCCCl)cc1 (stereo not drawn) [N^β -cinnamaylidene]
- solubility compared with the compound described under (A) [1]: similar

Compound: CN(C)c1ccc(P(=O)(CC(=O)NN=Cc2cccc([N+](=O)[O-])c2)OCCCl)cc1 (stereo not drawn) [N^β -m-nitrobenzylidene]
- solubility compared with the compound described under (A) [1]: similar

Compound: CN(C)c1ccc(P(=O)(CC(=O)NN=Cc2ccccc2O)OCCCl)cc1 (stereo not drawn) [N^β -o-hydroxybenzylidene]
- solubility compared with the compound described under (A) [1]: similar

Compound: NC(=O)CN1CCCC1=O [Piracetam, reference compound]
- Latency (sec ± SEM), hypoxia induced amnesia ([7]; 100 mg/kg): 107 ± 19 s
- Latency (sec ± SEM), scopolamine induced amnesia ([8]; 100 mg/kg): 73 ± 24 s
